Assays:
Conditions in all cases: 72 h
[1] = tested on: Caco-2; assay: cell viability relative to DMSO; higher = less toxic
[2] = tested on: Calu-3; assay: as above
[3] = tested on: HepG2; assay: as above
[4] = tested on: U2OS; assay: as above
[5] = tested on: Vero E6; assay: as above
[6] = tested on: Caco-2; assay: relative viability EC50 (midpoint between 100% and the lowest measured viability); higher = less toxic
[7] = tested on: Calu-3; assay: as above
[8] = tested on: HepG2; assay: as above
[9] = tested on: U2OS; assay: as above
[10] = tested on: Vero E6; assay: as above
[11] = tested on: Caco-2; assay: drug sensitivity score (DSS) for viability; higher = more toxic; extreme values may be limits of the assay
[12] = tested on: Calu-3; assay: as above
[13] = tested on: HepG2; assay: as above
[14] = tested on: U2OS; assay: as above
[15] = tested on: Vero E6; assay: as above

OCCCNc1ccccc1 [3-anilinopropan-1-ol]
cell viability ([1]; 1 nM): 101%
cell viability ([1]; 10 nM): 91.8%
cell viability ([1]; 100 nM): 93.7%
cell viability ([1]; 1000 nM): 93.3%
cell viability ([1]; 10000 nM): 95.3%
cell viability ([2]; 1 nM): 106%
cell viability ([2]; 10 nM): 104%
cell viability ([2]; 100 nM): 99.6%
cell viability ([2]; 1000 nM): 97%
cell viability ([2]; 10000 nM): 115%
cell viability ([3]; 1 nM): 103%
cell viability ([3]; 10 nM): 101%
cell viability ([3]; 100 nM): 95.6%
cell viability ([3]; 1000 nM): 103%
cell viability ([3]; 10000 nM): 94.9%
cell viability ([4]; 1 nM): 99.6%
cell viability ([4]; 10 nM): 106%
cell viability ([4]; 100 nM): 97.8%
cell viability ([4]; 1000 nM): 102%
cell viability ([4]; 10000 nM): 98.7%
cell viability ([5]; 1 nM): 100%
cell viability ([5]; 10 nM): 96.1%
cell viability ([5]; 100 nM): 107%
cell viability ([5]; 1000 nM): 94.4%
cell viability ([5]; 10000 nM): 97.9%
relative viability EC50 [6]: > 10 µM
relative viability EC50 [7]: > 10 µM
relative viability EC50 [8]: > 10 µM
relative viability EC50 [9]: > 10 µM
relative viability EC50 [10]: > 10 µM
drug sensitivity score [11]: 0
drug sensitivity score [12]: 0
drug sensitivity score [13]: 0
drug sensitivity score [14]: 0
drug sensitivity score [15]: 0

N[C@@H]1CCN(c2cccnc2)C1 [ABT-202]
cell viability ([1]; 1 nM): 101%
cell viability ([1]; 10 nM): 102%
cell viability ([1]; 100 nM): 96%
cell viability ([1]; 1000 nM): 95.7%
cell viability ([1]; 10000 nM): 106%
cell viability ([2]; 1 nM): 93.1%
cell viability ([2]; 10 nM): 90.3%
cell viability ([2]; 100 nM): 99.8%
cell viability ([2]; 1000 nM): 97.5%
cell viability ([2]; 10000 nM): 99.3%
cell viability ([3]; 1 nM): 97.8%
cell viability ([3]; 10 nM): 99%
cell viability ([3]; 100 nM): 104%
cell viability ([3]; 1000 nM): 105%
cell viability ([3]; 10000 nM): 109%
cell viability ([4]; 1 nM): 96.1%
cell viability ([4]; 10 nM): 98.8%
cell viability ([4]; 100 nM): 96.1%
cell viability ([4]; 1000 nM): 102%
cell viability ([4]; 10000 nM): 103%
cell viability ([5]; 1 nM): 102%
cell viability ([5]; 10 nM): 97.4%
cell viability ([5]; 100 nM): 104%
cell viability ([5]; 1000 nM): 94.5%
cell viability ([5]; 10000 nM): 108%
relative viability EC50 [6]: > 10 µM
relative viability EC50 [7]: > 10 µM
relative viability EC50 [8]: > 10 µM
relative viability EC50 [9]: > 10 µM
relative viability EC50 [10]: > 10 µM
drug sensitivity score [11]: 0
drug sensitivity score [12]: 0
drug sensitivity score [13]: 0
drug sensitivity score [14]: 0
drug sensitivity score [15]: 0

CCc1cc(/C(C)=N/OCc2ccc(C3CCCCC3)c(C(F)(F)F)c2)ccc1CN1CC(C(=O)O)C1 [siponimod]
cell viability ([1]; 1 nM): 93.6%
cell viability ([1]; 10 nM): 107%
cell viability ([1]; 100 nM): 91.3%
cell viability ([1]; 1000 nM): 97.6%
cell viability ([1]; 10000 nM): 81.3%
cell viability ([2]; 1 nM): 116%
cell viability ([2]; 10 nM): 99.7%
cell viability ([2]; 100 nM): 98.8%
cell viability ([2]; 1000 nM): 96.6%
cell viability ([2]; 10000 nM): 97.6%
cell viability ([3]; 1 nM): 104%
cell viability ([3]; 10 nM): 89.8%
cell viability ([3]; 100 nM): 91.3%
cell viability ([3]; 1000 nM): 110%
cell viability ([3]; 10000 nM): 97.4%
cell viability ([4]; 1 nM): 101%
cell viability ([4]; 10 nM): 99.5%
cell viability ([4]; 100 nM): 96.6%
cell viability ([4]; 1000 nM): 101%
cell viability ([4]; 10000 nM): 98.7%
cell viability ([5]; 1 nM): 102%
cell viability ([5]; 10 nM): 101%
cell viability ([5]; 100 nM): 98.6%
cell viability ([5]; 1000 nM): 96.6%
cell viability ([5]; 10000 nM): 96.4%
relative viability EC50 [6]: > 10 µM
relative viability EC50 [7]: > 10 µM
relative viability EC50 [8]: > 10 µM
relative viability EC50 [9]: > 10 µM
relative viability EC50 [10]: > 10 µM
drug sensitivity score [11]: 0.8
drug sensitivity score [12]: 0
drug sensitivity score [13]: 0
drug sensitivity score [14]: 0
drug sensitivity score [15]: 0

CCC(=O)N1CCN(c2ccc(-n3c(=O)ccc4cnc5ccc(-c6cnc7ccccc7c6)cc5c43)cc2C(F)(F)F)CC1 [torin-1]
cell viability ([1]; 1 nM): 97.5%
cell viability ([1]; 10 nM): 101%
cell viability ([1]; 100 nM): 89.6%
cell viability ([1]; 1000 nM): 49.4%
cell viability ([1]; 10000 nM): 31.1%
cell viability ([2]; 1 nM): 108%
cell viability ([2]; 10 nM): 98.7%
cell viability ([2]; 100 nM): 86.4%
cell viability ([2]; 1000 nM): 33.7%
cell viability ([2]; 10000 nM): 32.4%
cell viability ([3]; 1 nM): 101%
cell viability ([3]; 10 nM): 97.9%
cell viability ([3]; 100 nM): 95%
cell viability ([3]; 1000 nM): 53.8%
cell viability ([3]; 10000 nM): 26.3%
cell viability ([4]; 1 nM): 100%
cell viability ([4]; 10 nM): 103%
cell viability ([4]; 100 nM): 91.8%
cell viability ([4]; 1000 nM): 42.2%
cell viability ([4]; 10000 nM): 19%
cell viability ([5]; 1 nM): 93.4%
cell viability ([5]; 10 nM): 94.4%
cell viability ([5]; 100 nM): 88.2%
cell viability ([5]; 1000 nM): 57.9%
cell viability ([5]; 10000 nM): 39.4%
relative viability EC50 [6]: 0.426 µM
relative viability EC50 [7]: 0.183 µM
relative viability EC50 [8]: 0.684 µM
relative viability EC50 [9]: 0.512 µM
relative viability EC50 [10]: 0.404 µM
drug sensitivity score [11]: 10.7
drug sensitivity score [12]: 14.4
drug sensitivity score [13]: 9.8
drug sensitivity score [14]: 12
drug sensitivity score [15]: 9.3
